Source: patent publication EP4813979A1, “COMPOUND FOR EGFR PROTEIN DEGRADATION AND USE THEREOF” (TYK Medicines, Inc., priority 2023, dated 2025)
Read-outs that look alike come from different tables or passages of the source.

Experiments:
Format in all cases: cell-based
[1] = biological target: EGFR in Baf3-19del-T790M-C797S (Homo sapiens, UniProt P00533, C797S/DEL746-750/T790M); test: EGFR PROTAC HTRF experiment (total EGFR degradation)
Method: (§1) [table] Among them, B[…] -C797S (abbreviated as Baf3-DTC) is a stable Ba/F3 clone expressing exogenous EGFR gene bearing T790M, C797S and […] triple amino acid mutations, purchased from KYinno; Baf3-L858R-T790M - C797S (abbreviated as Baf3-LTC) is a stable Ba/F3 clone expressing exogenous EGFR gene bearing […], T790M, C797S triple mutations, purchased from KYinno. [table] [table] Dilutded Eu and d2 antibodies 2μl per well with detection buffer 20-fold. Then mixed the two antibody vials thoroughly. [table] Opened EnVision , locate the HTRF program, configured the board, and then read […]. The fitted curve, DC50 and Dmax of this compound could be generated using GraphPad Prism .

[2] = biological target: EGFR in Baf3-L858R-T790M-C797S (Homo sapiens, UniProt P00533, C797S/L858R/T790M); test: as above
Method: as §1

[3] = tested on: Baf3-19del- T790M -C797S (Baf3-DTC); test: Cell anti-proliferation experiment (CTG)
In short: (§2)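 PC-9 (EGFR exon 19 del), H1975 (T790M/L858R), A431 (wild-type EGFR) and a Ba/F3 clone stably expressing mutant EGFR were seeded at 1500-2500 cells/well, left 24 h, then treated in triplicate with 1:4 dilutions up to 10,000 nM for 72 h. CTG luminescence was normalised to 0.1% DMSO and blank medium; IC50 from curve fit.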

A431 = test: Cell anti-proliferation experiment (CTG); details: Homo sapiens, A431 (wild-type EGFR)
In short: as §2

A549 = test: Cell anti-proliferation experiment (CTG); details: Homo sapiens, A549 (wild-type EGFR)
In short: (§3)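 Cells were seeded at 1500–2500/well and dosed after ~24 h with compound in a 1:4 dilution series up to 10,000 nM, in triplicate. Viability was read by CTG luminescence after 72 h, normalized to the 0.1% DMSO control and medium blank, and IC50 was obtained by curve fitting.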

PC-9 = test: Cell anti-proliferation experiment (CTG); details: Homo sapiens, PC-9 (EGFR exon 19 deletion)
In short: as §2

HCC827 = test: Cell anti-proliferation experiment (CTG); details: Homo sapiens, HCC827 (exon 19 deletion)
In short: as §3

[4] = tested on: Baf3-L858R-T790M - C797S (Baf3-LTC); test: Cell anti-proliferation experiment (CTG)
In short: as §2

H1975 = test: Cell anti-proliferation experiment (CTG); details: Homo sapiens, H1975 (EGFR T790M/L858R)
In short: as §2

[5] = Baf3-DTC, incubated 16 hours, HTRF total EGFR; read-out: Baf3-DTC DC50
[6] = Baf3-DTC, incubated 16 hours, HTRF total EGFR; read-out: Baf3-DTC Dmax
[7] = Baf3-LTC, incubated 16 hours, HTRF total EGFR; read-out: Baf3-LTC DC50
[8] = Baf3-LTC, incubated 16 hours, HTRF total EGFR; read-out: Baf3-LTC Dmax
[9] = 72 h, number after the class symbol
[10] = A-431, 72 h, number after the class symbol
[11] = A549, 72 h, number after the class symbol
[12] = PC-9, 72 h, number after the class symbol
[13] = HCC827, 72 h, number after the class symbol
[14] = NCI-H1975, 72 h, number after the class symbol

Sequence of EGFR in Baf3-19del-T790M-C797S (P00533 with tags, fused parts or gaps DEL746-750/T790M/C797S): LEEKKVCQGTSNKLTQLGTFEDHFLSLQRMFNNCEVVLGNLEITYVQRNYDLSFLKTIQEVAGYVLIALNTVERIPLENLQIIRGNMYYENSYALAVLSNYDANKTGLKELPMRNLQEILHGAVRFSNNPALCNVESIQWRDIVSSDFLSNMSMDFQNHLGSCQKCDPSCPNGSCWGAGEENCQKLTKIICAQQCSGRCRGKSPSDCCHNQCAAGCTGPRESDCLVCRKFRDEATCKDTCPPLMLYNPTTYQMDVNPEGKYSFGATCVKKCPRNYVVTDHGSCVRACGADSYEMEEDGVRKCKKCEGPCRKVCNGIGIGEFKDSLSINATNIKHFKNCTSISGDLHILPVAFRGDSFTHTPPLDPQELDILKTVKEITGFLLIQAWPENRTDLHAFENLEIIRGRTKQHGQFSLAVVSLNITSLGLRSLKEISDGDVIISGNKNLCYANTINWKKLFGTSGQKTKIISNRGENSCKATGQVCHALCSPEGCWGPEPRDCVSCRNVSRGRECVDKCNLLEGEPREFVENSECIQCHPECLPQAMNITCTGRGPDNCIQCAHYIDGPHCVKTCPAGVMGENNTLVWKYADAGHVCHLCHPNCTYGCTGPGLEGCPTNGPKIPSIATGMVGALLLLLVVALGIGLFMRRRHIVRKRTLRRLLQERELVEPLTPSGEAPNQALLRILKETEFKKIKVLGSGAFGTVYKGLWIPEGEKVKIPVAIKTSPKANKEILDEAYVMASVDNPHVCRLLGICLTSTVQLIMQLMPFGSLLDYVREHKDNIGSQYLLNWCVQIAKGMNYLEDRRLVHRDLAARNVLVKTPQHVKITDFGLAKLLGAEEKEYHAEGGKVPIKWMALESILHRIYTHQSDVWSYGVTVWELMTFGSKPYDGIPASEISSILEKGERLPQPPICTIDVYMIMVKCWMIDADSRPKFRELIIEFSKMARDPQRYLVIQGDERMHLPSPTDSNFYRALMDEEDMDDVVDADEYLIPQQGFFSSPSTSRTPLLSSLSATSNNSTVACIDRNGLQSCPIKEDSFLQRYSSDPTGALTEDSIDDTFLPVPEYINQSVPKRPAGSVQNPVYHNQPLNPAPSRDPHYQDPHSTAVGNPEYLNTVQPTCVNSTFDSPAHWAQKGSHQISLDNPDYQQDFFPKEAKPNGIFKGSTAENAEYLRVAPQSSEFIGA
Sequence of EGFR in Baf3-L858R-T790M-C797S (P00533 25-1210 T790M/C797S/L858R): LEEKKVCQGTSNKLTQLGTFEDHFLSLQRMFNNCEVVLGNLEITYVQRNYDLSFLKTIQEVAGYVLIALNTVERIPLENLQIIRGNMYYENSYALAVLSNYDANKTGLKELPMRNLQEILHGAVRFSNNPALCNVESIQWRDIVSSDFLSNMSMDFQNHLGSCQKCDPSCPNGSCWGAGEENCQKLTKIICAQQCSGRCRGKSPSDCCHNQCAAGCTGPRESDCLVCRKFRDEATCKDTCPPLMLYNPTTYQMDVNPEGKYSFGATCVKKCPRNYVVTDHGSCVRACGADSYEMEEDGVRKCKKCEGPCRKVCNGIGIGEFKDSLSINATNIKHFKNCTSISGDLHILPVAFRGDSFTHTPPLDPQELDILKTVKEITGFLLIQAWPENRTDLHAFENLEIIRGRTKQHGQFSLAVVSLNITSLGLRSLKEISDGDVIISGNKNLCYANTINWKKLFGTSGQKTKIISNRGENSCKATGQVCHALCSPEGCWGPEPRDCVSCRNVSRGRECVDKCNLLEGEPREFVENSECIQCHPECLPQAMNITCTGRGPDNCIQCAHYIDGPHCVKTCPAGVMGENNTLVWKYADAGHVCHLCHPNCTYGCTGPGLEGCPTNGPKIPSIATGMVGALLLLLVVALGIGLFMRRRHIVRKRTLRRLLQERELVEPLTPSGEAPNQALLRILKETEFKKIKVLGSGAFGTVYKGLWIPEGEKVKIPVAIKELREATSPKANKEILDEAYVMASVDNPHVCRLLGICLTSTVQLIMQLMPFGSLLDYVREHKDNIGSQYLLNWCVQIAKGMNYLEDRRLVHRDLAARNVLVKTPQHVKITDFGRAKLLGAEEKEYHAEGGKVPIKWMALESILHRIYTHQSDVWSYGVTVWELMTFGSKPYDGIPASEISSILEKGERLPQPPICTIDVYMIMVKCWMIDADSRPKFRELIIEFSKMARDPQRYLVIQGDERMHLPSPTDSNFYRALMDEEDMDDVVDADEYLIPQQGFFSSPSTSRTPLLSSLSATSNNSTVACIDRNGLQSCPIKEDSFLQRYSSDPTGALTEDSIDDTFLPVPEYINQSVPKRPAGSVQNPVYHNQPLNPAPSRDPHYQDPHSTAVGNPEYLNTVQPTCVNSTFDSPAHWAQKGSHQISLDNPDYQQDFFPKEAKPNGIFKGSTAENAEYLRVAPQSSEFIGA

| Structure (SMILES) | DC50 [1, 5] [nM] | Dmax [1, 6] [%] | DC50 [2, 7] [nM] | Dmax [2, 8] [%] | IC50 ([3]; 72 h, class symbol) [nM] | IC50 [3, 9] [nM] | IC50 (A431; A-431, 72 h, class symbol) [nM] | IC50 (A431; [10]) [nM] | IC50 (A549; A549, 72 h, class symbol) [nM] | IC50 (A549; [11]) [nM] | IC50 (PC-9; PC-9, 72 h, class symbol) [nM] | IC50 (PC-9; [12]) [nM] | IC50 (HCC827; HCC827, 72 h, class symbol) [nM] | IC50 (HCC827; [13]) [nM] | IC50 ([4]; 72 h, class symbol) [nM] | IC50 [4, 9] [nM] | IC50 (H1975; NCI-H1975, 72 h, class symbol) [nM] | IC50 (H1975; [14]) [nM] | Dmax ([1]; read-out: Baf3-DTC Dmax) [%] | Dmax ([2]; read-out: Baf3-LTC Dmax) [%] | also measured |
| --- | --- | --- | --- | --- | --- | --- | --- | --- | --- | --- | --- | --- | --- | --- | --- | --- | --- | --- | --- | --- | --- |
| COc1cc(N2CCC(CN3CCN(c4ccc5c(c4)C(=O)N(C4CCC(=O)NC4=O)C5=O)CC3)CC2)c(-c2cnn(C)c2)cc1Nc1ncc(Br)c(Nc2ccc(C3CC3)cc2P(C)(C)=O)n1 (centres unmarked) [DZL-1, reference compound] | 10 to 100 | 70 to 100 | 10 to 100 | 70 to 100 | 10 to 100 | 14.5 | > 1000 | > 5000 | > 1000 | > 5000 | 100 to 1000 | 205 | 100 to 1000 | 105 | 10 to 100 | 13.6 | 10 to 100 | 54.8 |  |  |  |
| CCc1cc(Nc2ncc(Cl)c(Nc3ccccc3C(=O)NC)n2)c(OC)cc1N1CCN(C(=O)CN2CCC(c3cc4c(cc3F)c(N3CCC(=O)NC3=O)nn4C)C(F)(F)C2)CC1 (centres unmarked) [TA-003] |  |  |  |  |  |  |  |  |  |  |  |  |  |  |  |  |  |  | 70 to 100 | 70 to 100 | DC50 ([1]; read-out: Baf3-DTC DC50; Baf3-DTC, incubated 16 hours, HTRF total EGFR): 10 to 100 nM; DC50 ([2]; read-out: Baf3-LTC DC50; Baf3-LTC, incubated 16 hours, HTRF total EGFR): 10 to 100 nM; IC50 ([3]; 72 hours, class symbol): 100 to 1000 nM; IC50 (A431; A-431, 72 hours, class symbol): > 1000 nM; IC50 (A549; 72 hours, class symbol): > 1000 nM; IC50 (PC-9; 72 hours, class symbol): > 1000 nM; IC50 (HCC827; 72 hours, class symbol): > 1000 nM; IC50 ([4]; 72 hours, class symbol): 100 to 1000 nM; IC50 (H1975; NCI-H1975, 72 hours, class symbol): < 10 nM |
| CCc1cc(Nc2ncc(Cl)c(Nc3ccccc3P(C)(C)=O)n2)c(OC)cc1N1CC2(CCN(C(=O)CN3CCC(c4cc5c(cc4F)c(N4CCC(=O)NC4=O)nn5C)C(F)(F)C3)CC2)C1 (centres unmarked) [TA-023] | 10 to 100 | 70 to 100 | 10 to 100 | 70 to 100 | 100 to 1000 | 202 | > 1000 | 1180 | > 1000 | 1260 | 100 to 1000 | 461 | 100 to 1000 | 593 | < 10 | 8.4 | 10 to 100 | 14.7 |  |  |  |
| CCc1cc(Nc2ncc(Cl)c(Nc3ccccc3P(C)(C)=O)n2)c(OC)cc1N1CCN(C(=O)CN2CCC(c3cc4c(cc3F)c(N3CCC(=O)NC3=O)nn4C)C(F)(F)C2)CC1 (centres unmarked) [TC-157] | < 10 |  | < 10 |  | < 10 | 4.1 | > 1000 | 1650 | 100 to 1000 | 948 | 100 to 1000 | 349 | 100 to 1000 | 812 | < 10 | 4.1 | 10 to 100 | 24 | 70 to 100 | 70 to 100 |  |
| CCc1cc(Nc2ncc(Cl)c(Nc3ccccc3P(C)(C)=O)n2)c(OC)cc1N1CCN(C(=O)CN2CCC(c3cc4c(cc3F)c(N3CCC(=O)NC3=O)nn4C)CC2)CC1 [TC-213] | 10 to 100 | 70 to 100 | 10 to 100 | 70 to 100 | < 10 | 8.9 | > 1000 | 1340 | > 1000 | 1770 | 100 to 1000 | 505 | 10 to 100 | 53 | < 10 | 0.8 | 10 to 100 | 35.9 |  |  |  |
